In US11028090B2 (Dong Wha Pharm. Co., Ltd., priority 2017, dated 2021):
Like-named read-outs stand apart in the source and are kept apart here.

Legend:
[1] = tested on: acute myelogenous leukemia cells (MV-4-11 cells); experiment: Cytotoxicity to acute myelogenous leukemia cells (MV-4-11 cells), CCK-8; conditions: Homo sapiens, MV4-11, 72 h
Experimental: The following experiment was performed to evaluate the cytotoxicity of [1,2,4]triazolo[4,3-a]quinoxaline derivative according to the present invention to acute myelogenous leukemia cells (MV-4-11 cells).
Acute myelogenous leukemia cells (MV-4-11 cells) were distributed in a 96 well plate at the density of 5×10^3 cells/well. The plated cells were treated with the compounds of the present invention dissolved in DMSO at the different concentrations ranging from 0.01 μM to 10 μM. 72 hours later, the activities of the compounds were determined using CCK-8 reagent.

[2] = biological target: BRD4 (BD1+BD2) bromodomain (Homo sapiens (Human), UniProt O60885); experiment: BRD4 binding inhibition (AlphaScreen, GST-BRD4 vs tetraacetylated histone H4 peptide)
Outline: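 GST-BRD4 (BD1+BD2) and biotinylated tetraacetyl-histone H4 peptide, each at 100 nM in HEPES pH 7.4 buffer with BSA and DTT, were combined with compound. Glutathione acceptor and streptavidin donor beads were added, then incubated 30 min at room temperature in the dark. Read-out was AlphaScreen signal.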

[3] = read-out: IC50, cytotoxicity against acute myelogenous leukemia cells
[4] = read-out: MV-4-11 Cytotoxicity IC50
[5] = GST-BRD4 (BD1+BD2) / biotinylated acetyl-histone H4 (Lys5,8,12,16) peptide, read-out: IC50, BRD4 binding inhibition
[6] = GST-BRD4 (BD1+BD2) vs biotinylated acetyl-histone H4 peptide, AlphaScreen, read-out: BRD4 IC50

IC50 [2, 5] [µM] | IC50 [2, 6] [µM] | SMILES | IC50 [1, 3] [µM] | IC50 [1, 4] [µM]
≤ 0.01 | 0.0009 | CCCn1c(-c2ccc3c(c2)nc(NCCCCNC(=O)CC(C)C)c2nnc(C)n23)nc2ccccc21 [Example 240, 3-methyl-N-{4-[1-methyl-7-(1-propyl-1H-benzoimidazole-2-yl)-[1,2,4]triazolo[4,3-a]quinoxaline-4-ylamino]-butyl}-butyramide] | ≤ 0.2 | 0.158
≤ 0.05 | 0.014 | CCC(C)OC(=O)NCCCCNc1nc2cc(OC)ccc2n2c(C)nnc12 (stereo not shown) [Example 280, [4-(7-methoxy-1-methyl-[1,2,4]triazolo[4,3-a]quinoxaline-4-ylamino)-butyl]-carbamic acid-sec-butylester] | ≤ 0.2 | 0.04
≤ 0.01 | 0.001 | COCCOc1ccc2c(c1)nc(NCCCCNC(=O)[C@@H](NC(=O)OCC(C)C)C(C)C)c1nnc(C)n12 [Example 398, (S)-(1-{4-[7-(2-methoxy-ethoxy)-1-methyl-[1,2,4]triazolo[4,3-a]quinoxaline-4-ylamino]-butylcarbamoyl}-2-methyl-propyl)-carbamic acid isobutylester] | – | 0.79
≤ 0.05 | 0.04 | COc1cc2nc(NCCCCNC(=O)CC(C)C)c3nnc(C)n3c2cc1F [Example 574, N-[4-(8-fluoro-7-methoxy-1-methyl-[1,2,4]triazolo[4,3-a]quinoxaline-4-ylamino)-butyl]-3-methyl-butyramide] | ≤ 0.2 | 0.045
≤ 0.05 | 0.014 | COCCOc1ccc2c(c1)nc(NCCCCNC(=O)OCC(C)C)c1nnc(C)n12 [Example 369, {4-[7-(2-methoxy-ethoxy)-1-methyl-[1,2,4]triazolo[4,3-a]quinoxaline-4-ylamino]-butyl}-carbamic acid isobutylester] | ≤ 0.2 | 0.13
≤ 0.05 | 0.038 | COCCOc1cc2nc(NCCCCNC(=O)c3ccccc3)c3nnc(C)n3c2cc1OCCOC [Example 170, N-{4-[7,8-bis-(2-methoxy-ethoxy)-1-methyl-[1,2,4]triazolo[4,3-a]quinoxaline-4-ylamino]-butyl}-benzamide] | – | 0.53
≤ 0.05 | 0.033 | COc1ccc2c(c1)nc(NCCCCNC(=O)SC(C)C)c1nnc(C)n12 [Example 336, [4-(7-methoxy-1-methyl-[1,2,4]triazolo[4,3-a]quinoxaline-4-ylamino)-butyl]-thiocarbamic acid-S-isopropyl ester] | ≤ 0.2 | 0.08
≤ 0.05 | 0.011 | COc1ccc2c(c1)nc(NCCCCC(=O)NC(C)C)c1nnc(C)n12 [Example 654, 5-(7-methoxy-1-methyl-[1,2,4]triazolo[4,3-a]quinoxaline-4-ylamino)-pentanoic acid isopropylamide] | – | 0.27
≤ 0.01 | 0.01 | Cc1nnc2c(NCCCCNC(=O)CC(C)C)nc3cc(OC4CCOCC4)ccc3n12 [Example 344, 3-methyl-N-{4-[1-methyl-7-(tetrahydro-pyran-4-yloxy)-[1,2,4]triazolo[4,3-a]quinoxaline-4-ylamino]-butyl}-butyramide] | ≤ 0.2 | 0.121
≤ 0.05 | 0.036 | COc1ccc2c(c1)nc(NCCCCNC(=O)[C@H](C(C)C)N1CCC(O)C1)c1nnc(C)n12 (stereo partly drawn) [Example 315, 2-(S)-(3-hydroxy-pyrrolidine-1-yl)-N-[4-(7-methoxy-1-methyl-[1,2,4]triazolo[4,3-a]quinoxaline-4-ylamino)-butyl]-3-methyl-butyramide] | – | 0.55
≤ 0.05 | 0.012 | CCC(C)OC(=O)NCCCCNc1nc2cc(OC)c(OC)cc2n2c(C)nnc12 (stereo not shown) [Example 63, [4-(7,8-dimethoxy-1-methyl-[1,2,4]triazolo[4,3-a]quinoxaline-4-ylamino)-butyl]-carbamic acid-sec-butylester] | ≤ 0.2 | 0.07
≤ 0.05 | 0.033 | COc1ccc2c(c1)nc(NCCCCNC(=O)[C@H](C(C)C)N(C)C)c1nnc(C)n12 [Example 313, 2-(S)-dimethylamino-N-[4-(7-methoxy-1-methyl-[1,2,4]triazolo[4,3-a]quinoxaline-4-ylamino)-butyl]-3-methyl-butyramide] | – | 0.57
≤ 0.05 | 0.033 | COc1ccc2nc(NCCCCNC(=O)c3ccccc3Cl)c3nnc(C)n3c2c1 [Example 128, 2-chloro-N-[4-(8-methoxy-1-methyl-[1,2,4]triazolo[4,3-a]quinoxaline-4-ylamino)-butyl]-benzamide] | ≤ 0.2 | 0.17
≤ 0.05 | 0.03 | Cc1nnc2c(NCCCCNC(=O)[C@@H](NC(=O)OC(C)(C)C)C(C)C)nc3cc(N4CCOCC4)ccc3n12 [Example 502, (S)-{2-methyl-1-[4-(1-methyl-7-morpholine-4-yl-[1,2,4]triazolo[4,3-a]quinoxaline-4-ylamino)-butylcarbamoyl]-propyl}-carbamic acid-tert-butylester] | – | 0.331
≤ 0.01 | 0.002 | CCC(F)(F)C(=O)NCCCCNc1nc2cc(-c3nc4ccccc4n3C)ccc2n2c(C)nnc12 [Example 233, 2,2-difluoro-N-{4-[1-methyl-7-(1-methyl-1H-benzoimidazole-2-yl)-[1,2,4]triazolo[4,3-a]quinoxaline-4-ylamino]-butyl}-butyramide] | ≤ 0.2 | 0.071
≤ 0.05 | 0.041 | COCCOc1cc2nc(NCCCCNC(=O)NC(C)(C)C)c3nnc(C)n3c2cc1OCCOC [Example 169, 1-{4-[7,8-bis-(2-methoxy-ethoxy)-1-methyl-[1,2,4]triazolo[4,3-a]quinoxaline-4-ylamino]-butyl}-3-tert-butyl-urea] | – | 0.86
≤ 0.05 | 0.032 | CCC(C)CC(=O)NCCCCNc1nc2c(OC)c(OC)c(OC)cc2n2c(C)nnc12 (stereo not shown) [Example 196, 3-methyl-pentanoic acid-[4-(6,7,8-trimethoxy-1-methyl-[1,2,4]triazolo[4,3-a]quinoxaline-4-ylamino)-butyl]-amide] | – | 0.55
≤ 0.05 | 0.019 | Cc1nnc2c(NCCCCNC(=O)[C@@H](NC(=O)OC(C)(C)C)C(C)C)nc3cc(N4C[C@@H](C)O[C@@H](C)C4)ccc3n12 [Example 513, (S)-{2-methyl-1-[4-(1-methyl-7-(2,6-dimethyl-morpholine-4-yl)-[1,2,4]triazolo[4,3-a]quinoxaline-4-ylamino)-butylcarbamoyl]-propyl}-carbamic acid-tert-butylester] | – | 0.279
≤ 0.01 | 0.006 | Cc1nnc2c(NCCCCNC(=O)[C@@H](O)C(C)C)nc3cc(-c4nc5ccccc5n4C)ccc3n12 [Example 234, 2-(S)-hydroxy-3-methyl-N-{4-[1-methyl-7-(1-methyl-1H-benzoimidazole-2-yl)-[1,2,4]triazolo[4,3-a]quinoxaline-4-ylamino]-butyl}-butyramide] | ≤ 0.2 | 0.047
≤ 0.05 | 0.024 | Cc1nnc2c(NCCCCNC(=O)c3ccccc3Cl)nc3cc4c(cc3n12)OCCO4 [Example 187, 2-chloro-N-[4-(1-methyl-8,9-dihydro-7,10-dioxa-2,3,5,11b-tetraaza-cyclopenta[a]anthracene-4-ylamino)-butyl]-benzamide] | ≤ 0.2 | 0.11
≤ 0.01 | 0.01 | COc1cc2nc(NCCCCNC(=O)CCC3CCCC3)c3nnc(C)n3c2cc1OC [Example 81, 3-cyclopentyl-N-[4-(7,8-dimethoxy-1-methyl-[1,2,4]triazolo[4,3-a]quinoxaline-4-ylamino)-butyl]-propionamide] | ≤ 0.2 | 0.1
– | 0.065 | COc1cc2nc(NCCCCNC(=O)CC(C)C)c3nnc(C)n3c2cc1[N+](=O)[O-] [Example 555, N-[4-(7-methoxy-1-methyl-8-nitro-[1,2,4]triazolo[4,3-a]quinoxaline-4-ylamino)-butyl]-3-methyl-butyramide] | ≤ 0.2 | 0.118
– | 0.056 | CSc1ccc2c(c1)nc(NCCCCNC(=O)OC(C)(C)C)c1nnc(C)n12 [Example 354, [4-(1-methyl-7-methylsulfanyl-[1,2,4]triazolo[4,3-a]quinoxaline-4-ylamino)-butyl]-carbamic acid-tert-butylester] | – | 0.472
≤ 0.05 | 0.035 | Cc1nnc2c(NCCCCNC(=O)c3ccccc3Cl)nc3ccc(OC(F)(F)F)cc3n12 [Example 268, 2-chloro-N-[4-(1-methyl-8-trifluoromethoxy-[1,2,4]triazolo[4,3-a]quinoxaline-4-ylamino)-butyl]-benzamide] | – | 0.5
≤ 0.05 | 0.013 | CCOc1ccc2c(c1)nc(NCCCCNC(=O)OC(C)C)c1nnc(C)n12 [Example 443, [4-(7-ethoxy-1-methyl-[1,2,4]triazolo[4,3-a]quinoxaline-4-ylamino)-butyl]-carbamic acid isopropylester] | ≤ 0.2 | 0.12
≤ 0.05 | 0.013 | Cc1nnc2c(NCCCCNC(=O)CC(C)C)nc3cc(-c4nc5ccccc5[nH]4)ccc3n12 [Example 224, N-{4-[7-(1H-benzoimidazole-2-yl)-1-methyl-[1,2,4]triazolo[4,3-a]quinoxaline-4-ylamino]-butyl}-3-methyl-butyramide] | ≤ 0.2 | 0.003
